{
  "source": "patent US20250281496A1",
  "about": "“METHODS OF TREATING NEUROPATHY USING FORETINIB AND COMPOSITIONS THEREOF” (INDIANA UNIVERSITY RESEARCH AND TECHNOLOGY CORPORATION, priority 2022, published 2025)",
  "key": {"[1]": {"test_system": "TDP-43 mutant Zebra fish larvae", "assay": "TDP-43 mutant Zebra fish larvae ALS model", "assay_type": "in vivo", "set-up": "motor neuron axon length and NMJ formation: dose or concentration left out as unconfirmed"}, "[2]": {"test_system": "human iPSC-derived cultured MNs", "assay": "Thapsigargin- and Tunicamycin-induced death of human iPSC-derived motor neurons", "assay_type": "cell-based", "settings": "1 μM Thapsigargin or 1 μM Tunicamycin, 0.5 uM Foretinib, 48 hrs", "experimental": "A) Rat sympathetic neurons grown in compartmented cultures for one week in the presence of NGF were switched into the indicated conditions for 48 h and immunostained for βIII-tubulin (white). Schematics on the left show the configurations used. In the top panels, NGF was maintained in all compartments. In the center and bottom panels, NGF was withdrawn from all compartments. At the bottom panel and 500 nM foretinib (Foret) added to one of the sides and the center compartment. Fluorescence images show βIII-tubulin-positive axons in the sides compartment. At the right, enlarged images of the axons per condition. While the NGF deprived neurons degenerated (axonal beading and degradation in the central panel), Foretinib supplemented (lower panel) axons kept growing Red arrow at the top of the image indicates the distance of the axonal extension during 48 h since NGF withdrawal. Size bar: […].B) MNs were differentiated from healthy human iPS (Line ID 1016A)^62 as described^63. 3 day old MNs were treated with either 1 μM of Thapsigargin (Thaps) or 1 μM Tunicamycin (Tuni) and/or with either 0.5 uM of Foretinib. […] C) Quantitative representation of the results as in B. Error bars represent standard error; *p<0.05; ***p<0.005; t-test. […] E) Quantitative representation of changes in mouse body weight in dependence of the indicated IP daily doses of Foretinib."}, "[3]": {"test_system": "experimental diabetic neuropathy", "assay": "Intraepidermal nerve fiber density (IENFD) in plantar skin of STZ-diabetic mice", "assay_type": "in vivo", "experimental": "The primary objective of these experiments was to determine the effect of oral Foretinib on cutaneous innervation density in an experimental diabetic neuropathy. The numbers of animals needed for these experiments were determined by power analysis based on preliminary experiments assessing the cutaneous innervation density in diabetic and non-diabetic mice. A 50% increased nerve fiber density compared to the diabetic control was considered scientifically relevant, requiring a minimum of n=5 animals per group to achieve a power of 0.9 when assuming a standard deviation (SD) of 0.01 for all groups (normally distributed, two-sided). Animals were randomly allocated to experimental groups prior to induction of diabetes and the investigators were blinded during outcome assessments. Two experimental animals allocated to the Foretinib treated group were excluded from the experiment after not responding to the STZ injections. No outliers were excluded from the analysis. After five weeks, the experiment was terminated because 4 of 8 animals reached a predefined humane endpoint of greater than 15% weight loss compared to their pre-diabetic weight. The scheduled experimental endpoint was 12 weeks post-STZ injection.\nA total of 25 adult (24-28g), transgenic mice with a genetic black six background were included. […]"}, "[4]": {"assay": "Pharmacokinetics: blood plasma concentration after single IP injection, mass spectrometry", "assay_type": "in vivo, mice", "experimental": "A) Quantitative representation of changes in mouse body weight in dependence of the indicated IP daily doses of Foretinib (n=2 per dose). B) Changes in mouse blood plasma concentration of 5 mg/kg IP injected Foretinib during 48 hours after a single injection (n=3).\nIt is expected that Foretinib will protect against the diabetes-induced loss of terminal axons and ensheathing SC. In our previous study, 30 mg/kg of foretinib was administered via daily gavage for a course of 5 weeks. Although reported as non-toxic, at this dose the drug, along with a strong neuroprotective effect, caused lethargic behavior, ruffled fur and weight loss requiring early termination of the experiment. Due to the substantial prevalence of type 2 diabetes, we will examine the effect of foretinib treatment on type 2 diabetic mice (db/db). To define the maximal tolerable dose, we treated wt mice by daily intraperitoneal (IP) injection of several various dosages of foretinib for 20 days, while assessing the mice weight and behavior. […] Next, to define the pharmacokinetic (PK) characteristics of the drug, we performed a mass spectrometry analysis of blood samples from wt mice treated with 5 mg/kg (n=3 mice per dose per time point). We observed that IP injection of 5 mg/kg of foretinib generated nearly 100 ng/ml blood concentration during first 4 hours, declining by 4 ng/ml/hour (FIG. 7B)."}},
  "data": [
    {"smiles": "COc1cc2c(Oc3ccc(NC(=O)C4(C(=O)Nc5ccc(F)cc5)CC4)cc3F)ccnc2cc1OCCCN1CCOCC1", "note": "[Foretinib, N1-[3-Fluoro-4-({6-methoxy-7-[3-(morpholin-4-yl)propoxy]quinolin-4-yl}oxy)phenyl]-N′1-(4-fluorophenyl)cyclopropane-1,1-dicarboxamide]", "values": [
      {"measurement": "motor neuron axon length and NMJ formation", "setting": "[1]; 2 days old larvae exposed to Foretinib", "value": "longer and forms more NMJ"},
      {"measurement": "swimming deficits", "setting": "[1]; TDP-43 mutant larvae, data not shown", "value": "rescuing its swimming deficits"},
      {"measurement": "rescue of ER-stressor induced motor neuron death", "setting": "[2]", "value": "rescued Thapsigargin-and Tunicamycin-induced death"},
      {"measurement": "intraepidermal nerve fiber density (IENFD), plantar skin", "setting": "[3]; 30 mg/kg oral daily, 5 weeks post-diabetes induction, versus other diabetic groups", "value": "similarly reduced IENFD"},
      {"measurement": "reduction in epidermal nerve fiber density compared to healthy mice", "setting": "[3]; all diabetic groups incl. Foretinib 30 mg/kg/day oral, five weeks after diabetes induction", "value": 25, "unit": "%"},
      {"measurement": "decline of blood concentration", "setting": "[4]; 5 mg/kg IP single injection, after first 4 hours", "value": 4, "unit": "ng/mL/h"},
      {"measurement": "blood concentration during first 4 hours", "setting": "[4]; 5 mg/kg IP single injection, wt mice, n=3", "value": "~100", "unit": "ng/mL"},
      {"measurement": "blood concentration expressed in molar units", "setting": "[4]; 5 mg/kg IP, conversion of 100 ng/ml", "value": 160, "unit": "nM"}
    ]}
  ]
}
